Legend:
[1] = Impact of buffer strength on pH, osmolality, assay and impurities; assay type: physicochemical
Protocol: In addition, a screening was conducted on the impact of buffer strength on pH and osmolality.

[2] = Stability of ticagrelor 6 mg/ml in HPβCD 40% w/w, buffer pH 4.5, 5.5, 6.5, stored at 40° C. and 75% RH (HPLC related substances); assay type: physicochemical
Protocol: HPβCD was dissolved in a buffer solution of pH 4.5, 5.5 or 6.5 prepared separately in water. […] The ticagrelor in buffer solution was filtered through a 0.22 micron filtered and filled in USP Type I glass vials. The vials were stoppered and stored. All precautions were taken during manufacturing, such as N2 purging and avoiding direct exposure to light. The vials were stored at 40° C. and 75% Relative Humidity (RH).
To determine the stability of the formulations, batches were evaluated using a related substance method on HPLC.
A Gradient HPLC method was used to analyze impurities in formulations using a YMC-Pack Pro C18 column (100×4.6 mm, S-3 μm 12 nm). Good separation was obtained for all the impurities. • Amine impurity: (1S,2S,3R,5S)-3-(7-amino-5-(propylsulfanyl)-3H-[1,2,3]triazolo[4,5-d]pyrimidin-3-yl)-5-(2-hydroxyethoxy)cyclopentane-1,2-diol. This is a process related degradant impurity. • Regiomer impurity: (1S, 2S, 3R, 5S)-3-((3-((1R,2S)-2-(3,4-Difluorophenyl)cyclopropyl)-5-(propylsulfanyl)-3H-[1,2,3]triazolo[4,5-d]pyrimidin-7-yl)amino)-5-(2-hydroxyethoxy)cyclopentane-1,2-diol. This is a process related degradant impurity. • Acetal impurity: 2-[[(3aR,4S,6S,6aS)-6-[7-[1R,2S)-2-(3,4-difluorophenyl)-cyclopropyl]amino]-5-(propylsulfanyl)-3H-[1,2,3]triazolo-[4,5-d]pyrimidin-3-yl]-2,2-dimethyltetrahydro-2H-3aHcyclopenta[d][1,3]dioxol-4-yl]oxy]ethan-1-ol.

[3] = Phosphate buffer pH 7.5 strength 0.19 mM
[4] = Phosphate buffer pH 7.5 strength 5 mM
[5] = Phosphate buffer pH 7.5 strength 10 mM
[6] = Phosphate buffer pH 7.5 strength 19 mM
[7] = pH 4.5, T = 2 weeks, 40° C./75% RH
[8] = pH 4.5, T = 4 weeks, 40° C./75% RH
[9] = pH 5.5, T = 2 weeks, 40° C./75% RH
[10] = pH 5.5, T = 4 weeks, 40° C./75% RH
[11] = pH 6.5, T = 2 weeks, 40° C./75% RH
[12] = pH 6.5, T = 4 weeks, 40° C./75% RH

## CCCSc1nc(N[C@@H]2C[C@H]2c2ccc(F)c(F)c2)c2nnn([C@@H]3C[C@H](OCCO)[C@@H](O)[C@H]3O)c2n1 [Ticagrelor, (1S,2S,3R,5S)-3-{7-[(1R,2S)-2-(3,4-difluorophenyl)cyclopropylamino]5-(propylthio)-3H-(1,2,3)triazolo (4,5-D)pyrimidin-3-yl}-5-(2 hydroxyethoxy)cyclopentane-1,2-diol]
[1]; Phosphate buffer pH 7.5
  Osmolality sample: 809 mOsm/kg
[1]; [3]
  Assay: 102.23%
  Total Impurities: 0.42%
  pH sample: 7.18
[1]; [4]
  Assay: 100.49%
  Osmolality sample: 703 mOsm/kg
  Total Impurities: 0.40%
  pH sample: 7.66
[1]; [5]
  Assay: 102.98%
  Osmolality sample: 724 mOsm/kg
  Total Impurities: 0.42%
  pH sample: 7.69
[1]; [6]
  Assay: 102.58%
  Osmolality sample: 758 mOsm/kg
  Total Impurities: 0.42%
  pH sample: 7.70
[2]; 4 weeks 40° C. and 75% RH, specification limit 0.3%
  Regiomer impurity level: ~0.3%
[2]; pH 4.5, T = 0
  Acetal impurity content: 0.05%
  Amine impurity content: 0.05%
  Content of unnamed impurity, relative retention time 1.52: 0.03%
  Oxidative impurity 1 content: 0.00%
  Oxidative impurity 2 content: 0.00%
  Regiomer impurity content: 0.00%
  Sum Impurities >0.05: 0.22%
  Total Impurities: 0.36%
  Triol impurity content: 0.05%
[2]; [7]
  Acetal impurity content: 0.06%
  Amine impurity content: 0.05%
  Content of unnamed impurity, relative retention time 1.52: 0.04%
  Oxidative impurity 1 content: 0.00%
  Oxidative impurity 2 content: 0.00%
  Regiomer impurity content: 0.00%
  Sum Impurities >0.05: 0.23%
  Total Impurities: 0.40%
  Triol impurity content: 0.05%
[2]; [8]
  Acetal impurity content: 0.05%
  Amine impurity content: 0.05%
  Content of unnamed impurity, relative retention time 1.52: 0.03%
  Oxidative impurity 1 content: 0.01%
  Oxidative impurity 2 content: 0.02%
  Regiomer impurity content: 0.42%
  Sum Impurities >0.05: 0.63%
  Total Impurities: 0.80%
  Triol impurity content: 0.05%
[2]; pH 5.5, T = 0
  Acetal impurity content: 0.05%
  Amine impurity content: 0.04%
  Content of unnamed impurity, relative retention time 1.52: 0.02%
  Oxidative impurity 1 content: 0.00%
  Oxidative impurity 2 content: 0.00%
  Regiomer impurity content: 0.00%
  Sum Impurities >0.05: 0.16%
  Total Impurities: 0.33%
  Triol impurity content: 0.05%
[2]; [9]
  Acetal impurity content: 0.05%
  Amine impurity content: 0.05%
  Content of unnamed impurity, relative retention time 1.52: 0.03%
  Oxidative impurity 1 content: 0.00%
  Oxidative impurity 2 content: 0.00%
  Regiomer impurity content: 0.00%
  Sum Impurities >0.05: 0.21%
  Total Impurities: 0.36%
  Triol impurity content: 0.05%
[2]; [10]
  Acetal impurity content: 0.05%
  Amine impurity content: 0.04%
  Content of unnamed impurity, relative retention time 1.52: 0.02%
  Oxidative impurity 1 content: 0.01%
  Oxidative impurity 2 content: 0.02%
  Regiomer impurity content: 0.30%
  Sum Impurities >0.05: 0.45%
  Total Impurities: 0.65%
  Triol impurity content: 0.05%
[2]; pH 6.5, T = 0
  Acetal impurity content: 0.06%
  Amine impurity content: 0.05%
  Content of unnamed impurity, relative retention time 1.52: 0.03%
  Oxidative impurity 1 content: 0.00%
  Oxidative impurity 2 content: 0.00%
  Regiomer impurity content: 0.00%
  Sum Impurities >0.05: 0.22%
  Total Impurities: 0.36%
  Triol impurity content: 0.06%
[2]; [11]
  Acetal impurity content: 0.06%
  Amine impurity content: 0.05%
  Content of unnamed impurity, relative retention time 1.52: 0.04%
  Oxidative impurity 1 content: 0.00%
  Oxidative impurity 2 content: 0.00%
  Regiomer impurity content: 0.00%
  Sum Impurities >0.05: 0.23%
  Total Impurities: 0.41%
  Triol impurity content: 0.06%
[2]; [12]
  Acetal impurity content: 0.06%
  Amine impurity content: 0.05%
  Content of unnamed impurity, relative retention time 1.52: 0.03%
  Oxidative impurity 1 content: 0.00%
  Oxidative impurity 2 content: 0.04%
  Regiomer impurity content: 0.35%
  Sum Impurities >0.05: 0.56%
  Total Impurities: 0.72%
  Triol impurity content: 0.05%

Reference: patent US20250235455A1, “AQUEOUS TICAGRELOR SOLUTIONS, METHOD OF MANUFACTURING AND USES” (HYLORIS DEVELOPMENTS SA, priority 2022, published 2025)
